Measurements from patent US20260201008A1, “SECRETIN-DERIVED GLP1R SELECTIVE AGONISTS” (GUBRA A/S, priority 2023, published 2026).
Converted amounts (≈) assume the structure as drawn. Read-outs that look alike come from different tables or passages of the source. Numbered stars: 1 amine (or outer) side, 2 acyl side, 3 side chain; on linkers, the order of the positions; unused ones are H or OH. Square brackets hold non-standard residues; d marks the D form. Side chains are listed from the residue outwards. Peptide text beside a SMILES is read from it. * marks the point of attachment. C20 diacid = O=C(O)CCCCCCCCCCCCCCCCCCC(=O)*; γGlu = O=C(O)[C@H](CCC(=O)[*:2])N[*:1]; AEEA = NCCOCCOCC(=O)O; Aib = CC(C)(N)C(=O)O

Columns and labels:
[1] = Thioflavin T fibril formation assay of purified peptides; type: physicochemical; settings: 267 μM, phosphate buffer pH 7.0, 96 h at 40° C.
Experimental: Thioflavin T fibril formation assay: Peptides are dissolved as 267 μM in 50 mM phosphate buffer pH 7.0 for 2 h at room temperature on a rocking table. The samples were then divided into three replicates of 80 μl/well and mixed with 2 μl/well Thioflavin T (ThT) to a final concentration of 4 μM ThT in a black 384 well microplate with a clear bottom (Greiner #781096). The plate is inserted in a CLARIOstar Plus microplate reader (BMG Labtech) and fibril formation is measured as an increase in fluorescence emission at 480 nm (excitation at 450 nm) during 96 h at 40° C. with cycles of 5 min rest and 5 min linear shaking at 700 rpm.

[2] = Solubility of purified peptides; type: physicochemical; settings: 100 mM phosphate buffer, target pH 7.0, target approximately 10 mg/mL
Experimental: Solubility was tested in the following vehicles: 100 mM phosphate buffer facilitating a target pH of 7.0. Samples were directly dissolved in Mini-UniPrep Syringeless Filter 0.45 μm unit (Whatman). For the desired concentration, such as a concentration of approximately 10 mg/mL, 1050 nmol of peptide was dissolved in 400 μL vehicle. Samples were incubated for at least 1 h at room temperature on a rocking table. The pH was measured and adjusted. Samples were left on the rocking table for an additional hour before a second pH measurement and adjustment. Visual inspection was performed and noted before the filter was pushed. The concentration of peptide in the filtrate was determined using CAD (Charged Aerosol Detection), double determination was done for each sample. The measured concentration was reported in μM. Furthermore, the pH of the filtrate was measured and reported. Peptides with a measured concentration within +/−20% of target concentration are considered fully soluble.

[3] = molecular target: GLP1R (Homo sapiens, UniProt P43220); test: hGLP1R potency, cAMP accumulation in CHO-K1 cells stably overexpressing hGLP1R; type: cell-based; design: host or cells: CHO-K1; settings: for Selectivity: SCTR EC50/GLP1R EC50 ratio
Procedure, shortened: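 In the presence of 0.5 mM IBMX, compounds stimulated the cells for 30 minutes at room temperature. Accumulated cAMP was then detected by TR-FRET, with EC50 values fitted by variable-slope nonlinear regression.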

[4] = molecular target: SCTR (Homo sapiens, UniProt P47872); test: hSCTR potency, cAMP accumulation in CHO-K1 cells stably overexpressing hSCTR; type: cell-based; design: alternatively Euroscreen ES-712-AF; FAST-0161L; host or cells: CHO-K1
Procedure, shortened: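 In this Gs cAMP assay, stably transfected CHO-K1 hSCTR cells were stimulated at room temperature for 30 min in IBMX-containing buffer. Time-resolved FRET gave the signal. Replicates were increased when the top concentration changed or EC50 values differed 5-fold.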

[5] = Table 2, extended 30 amino acid peptides
[6] = Table 2, extended 30 amino acid peptides, read-out: PEC50 hGLPR1 (converted)
[7] = Table 2, extended 30 amino acid peptides, read-out: pEC50 hSCTR (converted)

Sequence of SCTR (P47872 23-440): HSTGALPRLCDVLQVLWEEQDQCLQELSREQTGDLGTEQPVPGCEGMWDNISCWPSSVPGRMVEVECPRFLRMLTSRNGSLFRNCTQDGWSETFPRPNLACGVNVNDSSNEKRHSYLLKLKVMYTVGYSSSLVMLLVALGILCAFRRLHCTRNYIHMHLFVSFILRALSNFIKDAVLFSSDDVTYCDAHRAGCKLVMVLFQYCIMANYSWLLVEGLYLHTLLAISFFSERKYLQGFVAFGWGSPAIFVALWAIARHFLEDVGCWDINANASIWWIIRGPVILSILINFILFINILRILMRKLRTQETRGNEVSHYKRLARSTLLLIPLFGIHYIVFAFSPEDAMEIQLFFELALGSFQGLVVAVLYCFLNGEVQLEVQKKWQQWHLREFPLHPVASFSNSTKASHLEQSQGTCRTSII
Sequence of GLP1R (P43220 24-463): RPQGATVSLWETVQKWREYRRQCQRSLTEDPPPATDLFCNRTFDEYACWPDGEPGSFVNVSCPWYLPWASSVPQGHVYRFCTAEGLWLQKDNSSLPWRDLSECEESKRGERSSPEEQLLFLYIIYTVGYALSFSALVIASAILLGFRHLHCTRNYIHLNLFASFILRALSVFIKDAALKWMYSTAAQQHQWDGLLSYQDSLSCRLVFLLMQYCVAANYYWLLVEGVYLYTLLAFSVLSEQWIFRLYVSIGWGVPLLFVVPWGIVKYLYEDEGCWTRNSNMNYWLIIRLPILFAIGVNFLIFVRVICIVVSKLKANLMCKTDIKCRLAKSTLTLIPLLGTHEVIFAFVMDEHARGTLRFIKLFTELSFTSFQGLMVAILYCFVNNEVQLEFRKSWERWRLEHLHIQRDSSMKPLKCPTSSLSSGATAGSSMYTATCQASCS

| Structure (SMILES) | Fibril formation [1] | solubility [2] [µg/mL] | Selectivity ([3]; purified peptides) | EC50 ([3]; cAMP accumulation, CHO-K1 cells stably overexpressing hGLP1R, read-out: hGLP1R potency (pEC50) (converted)) [nM] | SCTR EC50/GLP1R EC50 ratio ([3]; selectivity ratio, hSCTR vs hGLP1R, cAMP accumulation in CHO-K1 cells) | EC50 ([4]; cAMP accumulation, CHO-K1 cells stably overexpressing hSCTR, read-out: hSCTR potency (pEC50) (converted)) [nM] | EC50 ([4]; purified peptides, read-out: hSCTR pEC50 (converted)) [nM] | Selectivity [3, 5] | EC50 [3, 6] [nM] | EC50 [4, 7] [nM] |
| --- | --- | --- | --- | --- | --- | --- | --- | --- | --- | --- |
| CC(C)C[C@H](NC(=O)[C@H](Cc1ccccc1)NC(=O)[C@H](CCCNC(=N)N)NC(=O)[C@H](CCC(N)=O)NC(=O)[C@H](CC(C)C)NC(=O)C(C)(C)NC(=O)[C@H](C)NC(=O)[C@H](CCC(=O)O)NC(=O)[C@H](CCC(=O)O)NC(=O)[C@H](CCCCNC(=O)COCCOCCNC(=O)COCCOCCNC(=O)CC[C@H](NC(=O)CCCCCCCCCCCCCCCCCCC(=O)O)C(=O)O)NC(=O)[C@H](CC(C)C)NC(=O)[C@H](CCCNC(=N)N)NC(=O)[C@H](CO)NC(=O)[C@@H](NC(=O)[C@H](CC(=O)O)NC(=O)[C@H](CO)NC(=O)[C@@H](NC(=O)[C@H](Cc1ccccc1)NC(=O)[C@@H](NC(=O)CNC(=O)[C@H](CCC(=O)O)NC(=O)C(C)(C)NC(=O)[C@@H](N)Cc1c[nH]cn1)[C@@H](C)O)[C@@H](C)O)C(C)C)C(=O)N[C@@H](CCC(=O)O)C(=O)N[C@@H](Cc1c[nH]cn1)C(=O)N[C@@H](CC(C)C)C(=O)N[C@H](C(=O)N[C@@H](CCC(=O)O)C(=O)N[C@@H](C)C(=O)N[C@@H](C)C(N)=O)C(C)C [compound 208] (H-H[Aib]EGTFTSDVSRLK([AEEA-AEEA-γGlu-C20 diacid])EEA[Aib]LQRFLEHLVEAA-NH2) | No | 9200 (≈ 2230 µM) |  |  |  |  |  |  |  |  |
| CC(C)C[C@H](NC(=O)[C@H](Cc1ccccc1)NC(=O)[C@H](CCCNC(=N)N)NC(=O)[C@H](CCC(N)=O)NC(=O)[C@H](CC(C)C)NC(=O)C(C)(C)NC(=O)[C@H](C)NC(=O)[C@H](CCC(=O)O)NC(=O)[C@H](CCC(=O)O)NC(=O)[C@H](CCCCNC(=O)COCCOCCNC(=O)COCCOCCNC(=O)CC[C@H](NC(=O)CCCCCCCCCCCCCCCCCCC(=O)O)C(=O)O)NC(=O)[C@H](CC(C)C)NC(=O)[C@H](Cc1ccc(O)cc1)NC(=O)[C@H](CO)NC(=O)[C@@H](NC(=O)[C@H](CC(=O)O)NC(=O)[C@H](CO)NC(=O)[C@@H](NC(=O)[C@H](Cc1ccccc1)NC(=O)[C@@H](NC(=O)CNC(=O)[C@H](CCC(=O)O)NC(=O)C(C)(C)NC(=O)[C@@H](N)Cc1c[nH]cn1)[C@@H](C)O)[C@@H](C)O)C(C)C)C(=O)N[C@@H](CCC(=O)O)C(=O)N[C@@H](Cc1c[nH]cn1)C(=O)N[C@@H](CC(C)C)C(=O)N[C@H](C(N)=O)C(C)C [compound 203] (H-H[Aib]EGTFTSDVSYLK([AEEA-AEEA-γGlu-C20 diacid])EEA[Aib]LQRFLEHLV-NH2) | No | 9800 (≈ 2540 µM) | 11176 | 0.02 | 10000 | 200 | 200 |  |  |  |
| CC(C)C[C@H](NC(=O)[C@H](CC(C)C)NC(=O)[C@H](CCCNC(=N)N)NC(=O)[C@H](CO)NC(=O)[C@@H](NC(=O)[C@H](CC(=O)O)NC(=O)[C@H](CO)NC(=O)[C@@H](NC(=O)[C@H](Cc1ccccc1)NC(=O)[C@@H](NC(=O)CNC(=O)[C@H](CCC(=O)O)NC(=O)C(C)(C)NC(=O)[C@@H](N)Cc1c[nH]cn1)[C@@H](C)O)[C@@H](C)O)C(C)C)C(=O)N[C@@H](CCC(=O)O)C(=O)N[C@@H](CCC(=O)O)C(=O)N[C@@H](C)C(=O)NC(C)(C)C(=O)N[C@@H](CC(C)C)C(=O)N[C@@H](CCC(N)=O)C(=O)N[C@@H](CCCNC(=N)N)C(=O)N[C@@H](Cc1ccccc1)C(=O)N[C@@H](CC(C)C)C(=O)N[C@@H](CCC(=O)O)C(=O)N[C@@H](CCCCNC(=O)COCCOCCNC(=O)COCCOCCNC(=O)CC[C@H](NC(=O)CCCCCCCCCCCCCCCCCCC(=O)O)C(=O)O)C(=O)N[C@@H](CC(C)C)C(=O)N[C@H](C(=O)N[C@@H](CCC(=O)O)C(=O)N[C@@H](C)C(=O)N[C@@H](C)C(N)=O)C(C)C [compound 212] (H-H[Aib]EGTFTSDVSRLLEEA[Aib]LQRFLEK([AEEA-AEEA-γGlu-C20 diacid])LVEAA-NH2) | No | 8400 (≈ 2050 µM) | 2857 |  |  |  |  | 2864 | 0.02 | 63.1 |
| CC(C)C[C@H](NC(=O)[C@H](CC(C)C)NC(=O)[C@H](Cc1ccc(O)cc1)NC(=O)[C@H](CO)NC(=O)[C@@H](NC(=O)[C@H](CC(=O)O)NC(=O)[C@H](CO)NC(=O)[C@@H](NC(=O)[C@H](Cc1ccccc1)NC(=O)[C@@H](NC(=O)CNC(=O)[C@H](CCC(=O)O)NC(=O)C(C)(C)NC(=O)[C@@H](N)Cc1c[nH]cn1)[C@@H](C)O)[C@@H](C)O)C(C)C)C(=O)N[C@@H](CCC(=O)O)C(=O)N[C@@H](CCC(=O)O)C(=O)N[C@@H](C)C(=O)NC(C)(C)C(=O)N[C@@H](CC(C)C)C(=O)N[C@@H](CCC(N)=O)C(=O)N[C@@H](CCCNC(=N)N)C(=O)N[C@@H](Cc1ccccc1)C(=O)N[C@@H](CC(C)C)C(=O)N[C@@H](CCC(=O)O)C(=O)N[C@@H](CCCCNC(=O)COCCOCCNC(=O)COCCOCCNC(=O)CC[C@H](NC(=O)CCCCCCCCCCCCCCCCCCC(=O)O)C(=O)O)C(=O)N[C@@H](CC(C)C)C(=O)N[C@H](C(=O)N[C@@H](CCC(=O)O)C(=O)N[C@@H](C)C(=O)N[C@@H](C)C(N)=O)C(C)C [compound 213] (H-H[Aib]EGTFTSDVSYLLEEA[Aib]LQRFLEK([AEEA-AEEA-γGlu-C20 diacid])LVEAA-NH2) | No | 8200 (≈ 2000 µM) | 63571 |  |  |  |  | 54706 | 0.0158 | 1000 |
| CC(C)C[C@H](NC(=O)[C@H](Cc1ccccc1)NC(=O)[C@H](CCCNC(=N)N)NC(=O)[C@H](CCC(N)=O)NC(=O)[C@H](CC(C)C)NC(=O)C(C)(C)NC(=O)[C@H](C)NC(=O)[C@H](CCC(=O)O)NC(=O)[C@H](CCC(=O)O)NC(=O)[C@H](CCCCNC(=O)COCCOCCNC(=O)COCCOCCNC(=O)CC[C@H](NC(=O)CCCCCCCCCCCCCCCCCCC(=O)O)C(=O)O)NC(=O)[C@H](CC(C)C)NC(=O)[C@H](Cc1ccc(O)cc1)NC(=O)[C@H](CO)NC(=O)[C@@H](NC(=O)[C@H](CC(=O)O)NC(=O)[C@H](CO)NC(=O)[C@@H](NC(=O)[C@H](Cc1ccccc1)NC(=O)[C@@H](NC(=O)CNC(=O)[C@H](CCC(=O)O)NC(=O)C(C)(C)NC(=O)[C@@H](N)Cc1c[nH]cn1)[C@@H](C)O)[C@@H](C)O)C(C)C)C(=O)N[C@@H](CCC(=O)O)C(=O)N[C@@H](Cc1c[nH]cn1)C(=O)N[C@@H](CC(C)C)C(=O)N[C@H](C(=O)N[C@@H](CCC(=O)O)C(=O)N[C@@H](C)C(=O)N[C@@H](C)C(N)=O)C(C)C [compound 209] (H-H[Aib]EGTFTSDVSYLK([AEEA-AEEA-γGlu-C20 diacid])EEA[Aib]LQRFLEHLVEAA-NH2) | No | 11000 (≈ 2660 µM) | 33673 |  |  |  |  | 34167 | 0.0126 | 398 |
| CC(C)C[C@H](NC(=O)[C@H](Cc1ccccc1)NC(=O)[C@H](CCCNC(=N)N)NC(=O)[C@H](CCC(N)=O)NC(=O)[C@H](CC(C)C)NC(=O)C(C)(C)NC(=O)[C@H](C)NC(=O)[C@H](CCC(=O)O)NC(=O)[C@H](CCC(=O)O)NC(=O)[C@H](CCCCNC(=O)COCCOCCNC(=O)COCCOCCNC(=O)CC[C@H](NC(=O)CCCCCCCCCCCCCCCCCCC(=O)O)C(=O)O)NC(=O)[C@H](CC(C)C)NC(=O)[C@H](CCC(=O)O)NC(=O)[C@H](CO)NC(=O)[C@@H](NC(=O)[C@H](CC(=O)O)NC(=O)[C@H](CO)NC(=O)[C@@H](NC(=O)[C@H](Cc1ccccc1)NC(=O)[C@@H](NC(=O)CNC(=O)[C@H](CCC(=O)O)NC(=O)C(C)(C)NC(=O)[C@@H](N)Cc1c[nH]cn1)[C@@H](C)O)[C@@H](C)O)C(C)C)C(=O)N[C@@H](CCC(=O)O)C(=O)N[C@@H](Cc1c[nH]cn1)C(=O)N[C@@H](CC(C)C)C(=O)N[C@H](C(=O)N[C@@H](CCC(=O)O)C(=O)N[C@@H](C)C(=O)N[C@@H](C)C(N)=O)C(C)C [compound 210] (H-H[Aib]EGTFTSDVSELK([AEEA-AEEA-γGlu-C20 diacid])EEA[Aib]LQRFLEHLVEAA-NH2) | No | 8300 (≈ 2020 µM) |  |  |  |  |  |  |  |  |
